According to patent publication US20260083865A1, “PROSTATE SPECIFIC MEMBRANE ANTIGEN (PSMA) LIGANDS AND USE THEREOF” (priority 2022, published 2026):
Numbered stars: 1 amine (or outer) side, 2 acyl side, 3 side chain; on linkers, the order of the positions; unused ones are H or OH. Bridge positions count the residues as written; N and C are the ends. Square brackets hold non-standard residues; d marks the D form. Side chains are listed from the residue outwards. Peptide text beside a SMILES is read from it. * marks the point of attachment. X3 = O=C(O)CN1CCN(CC(=O)O)CCN(CC(=O)NCCCOCCOCCOCCCN*)CCN(CC(=O)O)CC1; DOTA = O=C(O)CN1CCN(CC(=O)O)CCN(CC(=O)*)CCN(CC(=O)O)CC1; Phe(4-CF3) = N[C@@H](Cc1ccc(C(F)(F)F)cc1)C(=O)O; Phe(3-CN) = N#Cc1cccc(C[C@H](N)C(=O)O)c1; Phe(4-Cl) = N[C@@H](Cc1ccc(Cl)cc1)C(=O)O; Phe(3-F) = N[C@@H](Cc1cccc(F)c1)C(=O)O; Arg(Me) = CNC(=N)NCCC[C@H](N)C(=O)O; X4 = O=C(CN1CCC(N[*:1])CC1)[*:2]; X1 = O=C(CC1CCN([*:1])CC1)[*:2]; Lys(Me) = CNCCCC[C@H](N)C(=O)O; Thr(ol) = C[C@@H](O)[C@H](N)CO; NMeK = CN[C@@H](CCCCN)C(=O)O; Suc = O=C(CCC(=O)[*:2])[*:1]; Tle = CC(C)(C)[C@H](N)C(=O)O; Nle = CCCC[C@H](N)C(=O)O; Dap = NC[C@H](N)C(=O)O; Aib = CC(C)(N)C(=O)O; CO = O=C([*:1])[*:2]; Guanidino = N=C(N)N*

Tests used:
[1] = molecular target: T1, PSMA-expressing C4-2 cells (Homo sapiens, UniProt Q04609); assay: FACS binding assay (competition with 50 nM PSM-0183); conditions: pIC50 category of FACS binding, C4-2 cells; read-out: pIC50 [C4-2] CAT (converted)
T1 construct: PSMA-expressing C4-2 cells (ATCC, Cat. No. CRL-3314) were cultured in RPMI-1640; host or cells: C4-2 cells
T1 sequence (Q04609 whole entry): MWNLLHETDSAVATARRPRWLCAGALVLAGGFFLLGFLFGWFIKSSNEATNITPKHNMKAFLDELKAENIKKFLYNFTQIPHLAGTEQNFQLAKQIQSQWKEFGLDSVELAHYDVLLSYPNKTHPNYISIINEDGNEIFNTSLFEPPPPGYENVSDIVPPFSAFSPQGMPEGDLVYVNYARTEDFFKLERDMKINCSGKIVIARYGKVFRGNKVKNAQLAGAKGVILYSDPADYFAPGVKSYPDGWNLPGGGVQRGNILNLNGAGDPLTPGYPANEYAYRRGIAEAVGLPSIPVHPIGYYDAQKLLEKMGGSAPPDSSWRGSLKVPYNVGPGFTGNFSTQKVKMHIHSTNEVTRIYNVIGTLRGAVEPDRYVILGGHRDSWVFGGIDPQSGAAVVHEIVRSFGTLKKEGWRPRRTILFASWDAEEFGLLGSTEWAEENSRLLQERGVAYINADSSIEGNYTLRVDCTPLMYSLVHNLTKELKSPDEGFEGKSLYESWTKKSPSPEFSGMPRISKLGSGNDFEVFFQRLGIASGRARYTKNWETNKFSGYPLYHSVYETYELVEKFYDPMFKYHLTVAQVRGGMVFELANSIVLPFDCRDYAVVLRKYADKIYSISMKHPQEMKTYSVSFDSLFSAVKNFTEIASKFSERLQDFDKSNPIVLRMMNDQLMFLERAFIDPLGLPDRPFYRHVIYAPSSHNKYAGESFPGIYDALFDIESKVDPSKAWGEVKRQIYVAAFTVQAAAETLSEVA
Method in brief: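 Competition format: fluorescent tracer PSM-0183 (50 nM) displaced from PSMA on C4-2 cells by a test compound titration over 1 h at 4 °C. Bound tracer was quantified as flow-cytometric AF488 median fluorescence after washing. Four-parameter logistic fits of MFI data gave IC50 and pIC50.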

[2] = molecular target: T2, Fc-fusion protein of human PSMA (hPSMA-Fc) (Homo sapiens, UniProt Q04609); assay: Surface plasmon resonance assay (Biacore T200, single cycle kinetic); assay type: binding; conditions: pKD category for PSMA SPR activity assay, hPSMA-Fc, 25° C.; read-out: pKD CAT (converted)
T2 construct: purchased Acro Biosystems PSA-H5264
T2 sequence (Q04609 44-750 limits assumed): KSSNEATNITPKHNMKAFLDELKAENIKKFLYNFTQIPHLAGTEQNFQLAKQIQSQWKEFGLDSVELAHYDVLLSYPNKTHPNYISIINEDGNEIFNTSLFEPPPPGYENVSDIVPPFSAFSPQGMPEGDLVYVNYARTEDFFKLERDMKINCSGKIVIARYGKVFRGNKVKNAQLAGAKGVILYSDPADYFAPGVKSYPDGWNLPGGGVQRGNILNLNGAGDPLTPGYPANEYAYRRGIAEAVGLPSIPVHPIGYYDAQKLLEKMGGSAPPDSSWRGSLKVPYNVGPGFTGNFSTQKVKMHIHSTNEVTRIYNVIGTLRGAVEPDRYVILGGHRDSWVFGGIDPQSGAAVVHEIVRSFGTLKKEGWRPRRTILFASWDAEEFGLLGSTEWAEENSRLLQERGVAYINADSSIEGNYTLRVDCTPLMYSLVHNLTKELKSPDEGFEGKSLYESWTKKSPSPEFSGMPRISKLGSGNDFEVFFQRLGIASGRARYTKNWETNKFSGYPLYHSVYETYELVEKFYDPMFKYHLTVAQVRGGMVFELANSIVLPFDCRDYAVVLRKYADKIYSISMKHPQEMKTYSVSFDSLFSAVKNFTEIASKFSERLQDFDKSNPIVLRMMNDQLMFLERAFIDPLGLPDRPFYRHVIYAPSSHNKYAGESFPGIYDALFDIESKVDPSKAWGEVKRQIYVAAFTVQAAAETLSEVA
Method in brief: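 KD, expressed as pKD, came from 1:1 Langmuir fits of reference- and buffer-blank-subtracted SPR data. The runs were single-cycle kinetics at 25° C in HBST/0.1% DMSO over human PSMA-Fc, captured to ~1000 RU on a peptide-coated CM5 surface and regenerated with 10 mM glycine pH 1.5.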

IC50 [1] [µM] | Kd [2] [µM] | SMILES
< 0.2 | < 0.0126 | CC(=O)N[C@H](C(=O)NC(C)(C)C(=O)N[C@@H](Cc1ccc(C(F)(F)F)cc1)C(=O)N[C@H]1CSSC[C@@H](C(=O)N[C@H](C(=O)N[C@H](C(N)=O)[C@@H](C)O)C(C)(C)C)NC(=O)[C@H](CC(N)=O)NC(=O)C(C)(C)NC(=O)[C@H](CCCNC(=N)N)NC(=O)[C@H](CCCCN)NC1=O)[C@@H](C)O [PSM-0550, Ac-Thr-Aib-Ptf-[Cys-Lys-Arg-Aib-Asn-Cys]-Tle-Thr-NH2] (Ac-T[Aib][Phe(4-CF3)]CKR[Aib]NC[Tle]T-NH2; disulfide 4-9)
< 0.2 | < 0.0126 | CC(=O)N[C@H](C(=O)NC(C)(C)C(=O)N[C@@H](Cc1cccc(F)c1)C(=O)N[C@H]1CSSC[C@@H](C(=O)N[C@H](C(=O)N[C@H](C(N)=O)[C@@H](C)O)C(C)(C)C)NC(=O)[C@H](CC(N)=O)NC(=O)C(C)(C)NC(=O)[C@H](CCCNC(=N)N)NC(=O)[C@H](CCCCN)NC1=O)[C@@H](C)O [PSM-0551, Ac-Thr-Aib-Mff-[Cys-Lys-Arg-Aib-Asn-Cys]-Tle-Thr-NH2] (Ac-T[Aib][Phe(3-F)]CKR[Aib]NC[Tle]T-NH2; disulfide 4-9)
< 0.2 | < 0.0126 | CC(=O)N[C@H](C(=O)NC(C)(C)C(=O)N[C@@H](Cc1ccccc1)C(=O)N[C@H]1CSSC[C@@H](C(=O)N[C@H](C(=O)N[C@H](C(N)=O)[C@@H](C)O)C(C)(C)C)NC(=O)[C@H](CC(N)=O)NC(=O)[C@H](C)NC(=O)[C@H](CCCNC(=N)N)NC(=O)[C@H](CCCCN)NC1=O)[C@@H](C)O [PSM-0552, Ac-Thr-Aib-Phe-[Cys-Lys-Arg-Ala-Asn-Cys]-Tle-Thr-NH2] (Ac-T[Aib]FCKRANC[Tle]T-NH2; disulfide 4-9)
< 0.2 | 0.0126 to 0.126 | CNCCCC[C@@H]1NC(=O)[C@@H](NC(=O)[C@H](Cc2cccc(F)c2)NC(=O)C(C)(C)NC(=O)[C@@H](NC(=O)CC2CCN(C(=O)CN3CCN(CC(=O)O)CCN(CC(=O)O)CCN(CC(=O)O)CC3)CC2)[C@@H](C)O)CSSC[C@@H](C(=O)N[C@H](C(N)=O)C(C)(C)C)NC(=O)[C@H](CC(N)=O)NC(=O)C(C)(C)NC(=O)[C@H](CCCNC(=N)NC)NC1=O [PSM-0553, DOTA-Cmp-Thr-Aib-Mff-[Cys-Lys(Me)-Arg(Me)-Aib-Asn-Cys]-Tle-NH2] ({DOTA}-[X1]T[Aib][Phe(3-F)]C[Lys(Me)][Arg(Me)][Aib]NC[Tle]-NH2; disulfide 5-10)
< 0.2 | < 0.0126 | CC(=O)N[C@H](C(=O)NC(C)(C)C(=O)N[C@@H](Cc1ccc(Cl)cc1)C(=O)N[C@H]1CSSC[C@@H](C(=O)N[C@H](C(=O)N[C@H](CO)[C@@H](C)O)C(C)(C)C)NC(=O)[C@H](CC(N)=O)NC(=O)C(C)(C)NC(=O)[C@H](CCCNC(=N)N)NC(=O)[C@H](CCCCN)NC1=O)[C@@H](C)O [PSM-0554, Ac-Thr-Aib-Pcf-[Cys-Lys-Arg-Aib-Asn-Cys]-Tle-Throl-OH] (Ac-T[Aib][Phe(4-Cl)]CKR[Aib]NC[Tle][Thr(ol)]; disulfide 4-9)
< 0.2 | < 0.0126 | CC(=O)N[C@H](C(=O)NC(C)(C)C(=O)N[C@@H](Cc1cccc(C#N)c1)C(=O)N[C@H]1CSSC[C@@H](C(=O)N[C@H](C(=O)N[C@H](C(N)=O)[C@@H](C)O)C(C)(C)C)NC(=O)[C@H](CC(N)=O)NC(=O)C(C)(C)NC(=O)[C@H](CCCNC(=N)N)NC(=O)[C@H](CCCCN)NC1=O)[C@@H](C)O [PSM-0555, Ac-Thr-Aib-Mnf-[Cys-Lys-Arg-Aib-Asn-Cys]-Tle-Thr-NH2] (Ac-T[Aib][Phe(3-CN)]CKR[Aib]NC[Tle]T-NH2; disulfide 4-9)

Further lines, the molecule ahead of its results:

SMILES | IC50 [1] [µM] | Kd [2] [µM]
CC(=O)N[C@H](C(=O)NC(C)(C)C(=O)N[C@@H](Cc1ccccc1)C(=O)N[C@H]1CSSC[C@@H](C(=O)N[C@H](C(=O)N[C@H](C(=O)N[C@@H](CC(=O)O)C(N)=O)[C@@H](C)O)C(C)(C)C)NC(=O)[C@H](CC(N)=O)NC(=O)[C@H](CCCCNC(=O)CCC(=O)NCCCOCCOCCOCCCNC(=O)CN2CCN(CC(=O)O)CCN(CC(=O)O)CCN(CC(=O)O)CC2)NC(=O)[C@H](CCCNC(=N)N)NC(=O)[C@H](CCCCN)NC1=O)[C@@H](C)O [PSM-0542, Ac-Thr-Aib-Phe-[Cys-Lys-Arg-Lys(DOTA-Ttds)-Asn-Cys]-Tle-Thr-Asp-NH2] (Ac-T[Aib]FCKRK([Suc-X3])NC[Tle]TD-NH2; disulfide 4-9) | < 0.2 | < 0.0126
C[C@@H](O)[C@H](NC(=O)[C@@H](NC(=O)[C@@H]1CSSC[C@H](NC(=O)[C@H](Cc2ccccc2)NC(=O)C(C)(C)NC(=O)[C@@H](NC(=O)CN2CCC(NC(=O)CN3CCN(CC(=O)O)CCN(CC(=O)O)CCN(CC(=O)O)CC3)CC2)[C@@H](C)O)C(=O)N[C@@H](CCCCN)C(=O)N[C@@H](CCCNC(=N)N)C(=O)NC(C)(C)C(=O)N[C@@H](CC(N)=O)C(=O)N1)C(C)(C)C)C(N)=O [PSM-0543, DOTA-APAc-Thr-Aib-Phe-[Cys-Lys-Arg-Aib-Asn-Cys]-Tle-Thr-NH2] ({DOTA}-[X4]T[Aib]FCKR[Aib]NC[Tle]T-NH2; disulfide 5-10) | < 0.2 | < 0.0126
CCCC[C@H](NC(=O)[C@@H]1CSSC[C@H](NC(=O)[C@H](Cc2ccccc2)NC(=O)[C@H](C)NC(=O)[C@@H](NC(C)=O)[C@@H](C)O)C(=O)N2CCC[C@H]2C(=O)N[C@@H](CCCNC(=N)N)C(=O)N[C@@H](C)C(=O)N[C@@H](CC(N)=O)C(=O)N1)C(=O)N[C@H](C(=O)N[C@@H](CC(=O)O)C(N)=O)[C@@H](C)O [PSM-0544, Ac-Thr-Als-Phe-[Cys-Pro-Arg-Ala-Asn-Cys]-Nle-Thr-Asp-NH2] (Ac-TAFCPRANC[Nle]TD-NH2; disulfide 4-9) | > 3.16 | > 0.501
CC(=O)N[C@H](C(=O)NC(C)(C)C(=O)N[C@@H](Cc1ccccc1)C(=O)N[C@H]1CSSC[C@@H](C(=O)N[C@H](C(=O)N[C@H](C(N)=O)[C@@H](C)O)C(C)(C)C)NC(=O)[C@H](CC(C)C)NC(=O)C(C)(C)NC(=O)[C@H](CCCNC(=N)N)NC(=O)[C@H](CCCCN)NC1=O)[C@@H](C)O [PSM-0545, Ac-Thr-Aib-Phe-[Cys-Lys-Arg-Aib-Leu-Cys]-Tle-Thr-NH2] (Ac-T[Aib]FCKR[Aib]LC[Tle]T-NH2; disulfide 4-9) | < 0.2 | < 0.0126
C[C@@H](O)[C@H](NC(=O)[C@@H](NC(=O)[C@@H]1CSSC[C@H](NC(=O)[C@H](Cc2ccc(Cl)cc2)NC(=O)C(C)(C)NC(=O)[C@@H](NC(=O)CC2CCN(C(=O)CN3CCN(CC(=O)O)CCN(CC(=O)O)CCN(CC(=O)O)CC3)CC2)[C@@H](C)O)C(=O)N[C@@H](CCCCN)C(=O)N[C@@H](CNC(=O)NC(=N)N)C(=O)NC(C)(C)C(=O)N[C@@H](CC(N)=O)C(=O)N1)C(C)(C)C)C(N)=O [PSM-0546, DOTA-Cmp-Thr-Aib-Pcf-[Cys-Lys-Urr-Aib-Asn-Cys]-Tle-Thr-NH2] ({DOTA}-[X1]T[Aib][Phe(4-Cl)]CK[Dap]([CO-Guanidino])[Aib]NC[Tle]T-NH2; disulfide 5-10) | < 0.2 | < 0.0126
CCCC[C@H](NC(=O)[C@@H]1CSSC[C@H](NC(=O)[C@H](Cc2ccccc2)NC(=O)[C@@H]2CCCN2C(=O)[C@@H](NC(C)=O)[C@@H](C)O)C(=O)N[C@@H](CCCCN)C(=O)N[C@@H](CCCNC(=N)N)C(=O)N[C@@H](C)C(=O)N[C@@H](CC(N)=O)C(=O)N1)C(=O)N[C@H](C(=O)N[C@@H](CC(=O)O)C(N)=O)[C@@H](C)O [PSM-0547, Ac-Thr-Pro-Phe-[Cys-Lys-Arg-Ala-Asn-Cys]-Nle-Thr-Asp-NH2] (Ac-TPFCKRANC[Nle]TD-NH2; disulfide 4-9) | < 0.2 | 0.0126 to 0.126
C[C@@H](O)[C@H](NC(=O)[C@@H](NC(=O)[C@@H]1CSSC[C@H](NC(=O)[C@H](Cc2ccc(Cl)cc2)NC(=O)C(C)(C)NC(=O)[C@@H](NC(=O)CC2CCN(C(=O)CN3CCN(CC(=O)O)CCN(CC(=O)O)CCN(CC(=O)O)CC3)CC2)[C@@H](C)O)C(=O)N(C)[C@@H](CCCCN)C(=O)N[C@@H](CCCNC(=N)N)C(=O)NC(C)(C)C(=O)N[C@@H](CC(N)=O)C(=O)N1)C(C)(C)C)C(N)=O [PSM-0548, DOTA-Cmp-Thr-Aib-Pcf-[Cys-Nmk-Arg-Aib-Asn-Cys]-Tle-Thr-NH2] ({DOTA}-[X1]T[Aib][Phe(4-Cl)]C[NMeK]R[Aib]NC[Tle]T-NH2; disulfide 5-10) | 0.2 to 1.26 | 0.0126 to 0.126
CNCCCC[C@@H]1NC(=O)[C@@H](NC(=O)[C@H](Cc2ccc(C(F)(F)F)cc2)NC(=O)C(C)(C)NC(=O)[C@@H](NC(=O)CC2CCN(C(=O)CN3CCN(CC(=O)O)CCN(CC(=O)O)CCN(CC(=O)O)CC3)CC2)[C@@H](C)O)CSSC[C@@H](C(=O)N[C@H](C(N)=O)C(C)(C)C)NC(=O)[C@H](CC(N)=O)NC(=O)C(C)(C)NC(=O)[C@H](CCCNC(=N)NC)NC1=O [PSM-0549, DOTA-Cmp-Thr-Aib-Ptf-[Cys-Lys(Me)-Arg(Me)-Aib-Ass-Cys]-Tle-NH2] ({DOTA}-[X1]T[Aib][Phe(4-CF3)]C[Lys(Me)][Arg(Me)][Aib]NC[Tle]-NH2; disulfide 5-10) | < 0.2 | 0.0126 to 0.126
